pEC50: −log10 of the molar value. “And” between values parts separate entries of the source, which are not always exact repeats. Equal entries are not always repeated. “Also recorded” adds a separate entry of the source.
Columns and labels:
[1] = tested on: Akt; conditions: cited from earlier work
[2] = target: T1, Akt2 epitope (450-481) (Homo sapiens, UniProt P31751); test: Epitope selectivity ELISA with His6 tagged C-terminal 32-mer fragments; assay type: binding; conditions: peptide fragments; set also full protein level
T1 construct: made in house; host or cells: chemical solid-phase peptide synthesis (Rink Amide MBHA resin)
T1 sequence (P31751 450-481 limits assumed): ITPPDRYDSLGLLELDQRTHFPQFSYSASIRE
Method: (§1) 1.25 μM biotinylated ligand was prepared by diluting the 1 mM stock in binding buffer (25 mM tris chloride, pH=7.4, 150 mM NaCl, 0.1% BSA, 0.05% Tween 20). The prepared ligand solution or 0.125% DMSO in buffer (buffer control) was immobilized on a High Capacity Streptavidin 96 well plate (Thermo Scientific). After washing away the excess ligand, the plate was blocked overnight with 1% BSA/25 mM tris chloride, pH=7.4/150 mM NaCl, 0.05% Tween 20. 2.5 μM solutions of the His6 (SEQ ID NO:28) tagged target phosphopeptide epitope Akt2 amino acids 450-481, His6 (SEQ ID NO:28) tagged Akt1 amino acids 449-480, His6 (SEQ ID NO:28) tagged Akt3 amino acids 448-479 were added to each of the wells. Following three washes with the binding buffer, the plate was treated for an hour with a 1:1000 dilution of anti His6 (SEQ ID NO:28) mouse monoclonal antibody. A 1:10,000 dilution of goat anti mouse antibody-Horse Radish Peroxide conjugate in binding buffer was added to the wells. The plates were washed four times, five minutes each, with 0.05% Tween 20/TBS (25 mM tris chloride, pH=7.5, 150 mM NaCl) and once with TBS (25 mM tris chloride, pH=7.5, 150 mM NaCl). […] The A450 measured on a 96-well plate reader. The Net A450 was obtained by subtracting the absorbance value for the blank control (no immobilized ligand) from each of the triplicate values obtained for the ligand-epitope interaction. […]

[3] = target: T2, Akt (Homo sapiens, UniProt P31751); test: OVCAR3 lysate pull-down (immunoprecipitation) assay; assay type: binding; conditions: eluents stained with pan-Akt antibody
T2 construct: endogenous in cells; host or cells: OVCAR3
T2 sequence (P31751 whole entry): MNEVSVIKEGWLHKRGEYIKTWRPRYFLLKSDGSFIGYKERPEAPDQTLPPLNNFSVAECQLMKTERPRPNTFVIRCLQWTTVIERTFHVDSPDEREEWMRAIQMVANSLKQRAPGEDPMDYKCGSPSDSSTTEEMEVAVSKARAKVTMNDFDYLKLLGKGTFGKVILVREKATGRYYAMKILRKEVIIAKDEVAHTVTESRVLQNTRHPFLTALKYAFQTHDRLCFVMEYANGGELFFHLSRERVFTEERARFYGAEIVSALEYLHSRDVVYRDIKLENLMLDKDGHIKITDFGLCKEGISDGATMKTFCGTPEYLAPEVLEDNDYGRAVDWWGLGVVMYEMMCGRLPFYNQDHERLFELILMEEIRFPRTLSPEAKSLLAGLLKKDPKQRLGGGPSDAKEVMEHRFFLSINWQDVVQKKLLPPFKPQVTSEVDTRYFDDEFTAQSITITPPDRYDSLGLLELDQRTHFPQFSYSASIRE
Method: OVCAR3 cells (ATCC) were grown in RPMI-1640 media containing 20% fetal bovine serum. Passage three cells were grown to ˜80% confluence. Cells were lysed with lysis buffer (10 mM Tris-Cl (pH=7.5), 100 mM NaCl, 1% (v/v) Triton X-100, 0.1% SDS (w/v), 0.5% deoxycholate, 1 mM DTT, 1 mM EDTA, 1× PhosStop phosphatase inhibitors (Roche), 1× Complete protease inhibitors (Roche)) and the amount of protein measured using BCA Protein Assay Kit (Pierce Biotechnologies, Inc). Streptavidin-agarose resin solution (EMD) was swelled in TBST (25 mM tris chloride, pH=7.5, 150 mM NaCl, 0.05% Tween-20). Each of the biotinylated ligands was immobilized on the Streptavidin-agarose resin by adding 7.2 μL of 1 mM ligand stock (DMSO) to 10 μL of the swelled streptavidin-agarose resin. For the blank control, the resin was treated with 7.2 μL of 1 mM biotinylated acyl glycine. […] After shaking overnight at 4° C., 50 μM D-biotin was added to the resin to block any remaining sites. The resin was washed with TBST five times, for fifteen minutes each. The resin was then swelled in binding buffer for two hours. To each of the immobilized ligands, 200 μL OVCAR3 cell lysate (1.9 mg/ml) was added. The tubes were shaken at 4° C. for 18 hours. The beads were extensively washed, three times for fifteen minutes in binding buffer, three times (fifteen minutes) in TBST, and three times (fifteen minutes) in TBS to remove unbound proteins. The resin bound proteins were eluted by adding 40 μL of 2×SDS-PAGE sample loading buffer (BioRad) and heating at 95° C. for five minutes. A 1:10 diluted sample of lysate in sample loading buffer was prepared by mixing 1 μL of the sample with 9 μL sample loading buffer and denaturing the sample by heating at 95° C. for five minutes. 10 μL of each sample was loaded on a 12% SDS-PAGE gels (BioRad) and run for 80 minutes at 110 volts. Three identical gels were loaded and run at the same time. One gel was used for Coomassie staining with Coomassie Fluor Orange Protein Gel Stain (Molecular Probes) following the manufacturer's protocol. The two other gels were transferred to nitrocellulose membranes by the semidry transfer method, blocked for two hours at 4° C. with 5% non-fat milk, and treated overnight at 4° C. with a 1:1000 dilution of pan-Akt rabbit monoclonal antibody (Cell Signaling Technology) and a 1:1000 dilution of pS473 Akt rabbit monoclonal antibody (Cell Signaling Technology), respectively, in 0.5% non-fat milk. The membranes were washed and treated for an hour with a 1:10,000 dilution of monoclonal mouse anti-rabbit-HRP secondary antibody (Cell Signaling Technology) in 0.5% milk. After five washes of five minutes each with TBST and one wash of five minutes with TBS, the blots were developed with West Dura ECL substrate (Thermo Scientific) and imaged on film.

[4] = target: T3, target peptide epitope (Akt2 450-481, pS474) (Homo sapiens, UniProt P31751); test: ELISA of C terminal triligand candidates binding to the target peptide epitope; conditions: listed as C-t1
T3 construct: made in house; host or cells: chemical solid-phase peptide synthesis (Rink Amide MBHA resin)
T3 sequence (P31751 450-481 limits assumed): T1 sequence (P31751 450-481 limits assumed)
Method: Selection of the final C terminal triligand C-tL: Four triligand candidates were synthesized with (L-Az4)-hdGGf (SEQ ID NO:25) […], (L-Az4)-hdGsf (SEQ ID NO:74) (C-t2), (L-Az4)-hdGww (SEQ ID NO:67) (C-t3), (L-Az4)-hdGkf (SEQ ID NO:77) (C-t4) as the 3° peptide arm. Binding of the candidates to the target peptide epitope was determined in an ELISA assay (FIG. 20C) and the ligand C-t1 emerged as the best binder. C-t1 was chosen as the C terminal triligand C-tL.
as §1, with “wells.” for “wells. Following three washes with the binding buffer, the plate was treated for an hour with a 1:1000 dilution of anti His6 (SEQ ID NO:28) mouse monoclonal antibody. A 1:10,000 dilution of goat anti mouse antibody-Horse Radish Peroxide conjugate in binding buffer was added to the wells. The plates were washed four times, five minutes each, with 0.05% Tween 20/TBS (25 mM tris chloride, pH=7.5, 150 mM NaCl) and once with TBS (25 mM tris chloride, pH=7.5, 150 mM NaCl).”

[5] = target: T4, Akt2 (Homo sapiens, UniProt P31751); test: Single component ELISA, PCC agent as capture or detection agent (relative affinity); assay type: binding; set-up: purchased Abcam; conditions: read-out: EC50 from single component ELISA
T4 sequence (P31751 whole entry, the tested form may be a part, canonical isoform): as the sequence (P31751 whole entry) above
Text: FIG. 23: A. ELISA assays in which the PCC Agents are utilized as either as surface-localized capture agents (for N-tL, C-tL) or as the detection agent (for mono-L, bi-L). Such assays provide relative affinity measurements, which are given as EC50 values in the key. […] C. C-tL distinguishes the full length Akt2 from isoform proteins Akt1 and Akt3. D. The 32 amino acid long C terminal fragment from Akt2, Akt1 and Akt3. The hydrophobic motif is highlighted in blue. pS refers to phospho-serine. […] F. Selectivity assays: Biotinylated ligands or biotinylated pS473 antibody is immobilized on streptavidin-agarose and treated with OVCAR3 cell lysate. The eluents are stained with a pan-Akt antibody or pS473 Akt antibody.
1.25 μM biotinylated ligand was prepared by diluting the 1 mM stock in binding buffer (25 mM tris chloride, pH=7.4, 150 mM NaCl, 0.1% BSA, 0.05% Tween 20). The prepared ligand solution or 0.125% DMSO in buffer (buffer control) was immobilized on a High Capacity Streptavidin 96 well plate (Thermo Scientific). After washing away the excess ligand, the plate was blocked overnight with 1% BSA/25 mM tris chloride, pH=7.4/150 mM NaCl, 0.05% Tween 20. 2.5 μM solutions of the His6 (SEQ ID NO:28) tagged target phosphopeptide epitope Akt2 amino acids 450-481, His6 (SEQ ID NO:28) tagged Akt1 amino acids 449-480, His6 (SEQ ID NO:28) tagged Akt3 amino acids 448-479 were added to each of the wells. Following three washes with the binding buffer, the plate was treated for an hour with a 1:1000 dilution of anti His6 (SEQ ID NO:28) mouse monoclonal antibody. A 1:10,000 dilution of goat anti mouse antibody-Horse Radish Peroxide conjugate in binding buffer was added to the wells. The plates were washed four times, five minutes each, with 0.05% Tween 20/TBS (25 mM tris chloride, pH=7.5, 150 mM NaCl) and once with TBS (25 mM tris chloride, pH=7.5, 150 mM NaCl). Color was developed by adding TMB substrate (KPL) to each well. The reaction was quenched with 0.5 M H2SO4. The A450 measured on a 96-well plate reader. The Net A450 was obtained by subtracting the absorbance value for the blank control (no immobilized ligand) from each of the triplicate values obtained for the ligand-epitope interaction. The selectivity assay with full length His6 (SEQ ID NO:28) tagged Akt1, Akt2 and Akt3 was performed following the same protocol, using 25 nM protein instead of 2.5 μM His6 tagged peptide epitope.

[6] = target: T4, Akt2; test: Non-radioactive kinase assay, phosphorylation of GSK-3α/β fusion protein; assay type: biochemical; set-up: purchased Abcam
Method: The non-radioactive kinase assay kit for Akt2 was purchased from Cell Signaling. Ligand solutions were made in DMSO. Kinase reactions were set up in 1× kinase buffer (25 mM trisHCl (pH 7.5), 10 mM MgCl2, 0.01% Triton-X, 1× Complete protease inhibitor (Roche), 1× Phosstop phosphatase inhibitor (Roche)), each 25 μL reaction mixture containing 400 ng Akt2, 400 ng GST-GSK-3α/β fusion protein, […] and 0.5 μL of peptide solutions in DMSO or DMSO only. Reactions were allowed to proceed for 30 minutes at 30° C. A reaction mixture was also prepared using a 1:2.5 dilution of anti pS473 antibody (Cell Signaling) in the kinase buffer instead of the peptide ligand or DMSO. The reactions were quenched by adding 12.5 μL of 2×SDS sample loading buffer and heating at 95° C. for five minutes. 10 μL from each sample was loaded on an any kD SDS gel (BioRad) and run for an hour at 110 volts. Following semidry transfer of the gel to a nitrocellulose membrane, the membrane was blocked in 5% nonfat milk/TBST for an hour at 4° C., and treated overnight at 4° C. with a 1:200 dilution of Phospho GSK-3α/β Ser (21/9) rabbit antibody (Cell Signaling) in 0.5% milk/TBST. Following washes, the membrane was treated with a 1:2000 dilution of mouse anti-rabbit-HRP antibody for an hour at 4° C. After four five minute washes with TBST, and one five minute wash with TBS, the membrane was treated with West Dura ECL substrate (Thermo Scientific) and imaged on film.

| Compound | effect on Akt phosphorylation [1] | selectivity for the Akt2 epitope compared to corresponding regions in Akt1 and Akt3 [2] | immunoprecipitation of Akt from OVCAR3 cell lysate [3] | binding to the target peptide epitope [4] | pEC50 [5] | pEC50 ([6]; densitometry of pGSK3α/β western blot, normalized to DMSO control, read-out: EC50 of inhibition of Akt2 kinase activity) | influence on Akt2 kinase activity (p-GSK-3α/β level) ([6]; relative to DMSO control) |
| --- | --- | --- | --- | --- | --- | --- | --- |
| Cc1n[nH]c2ccc(-c3cncc(OC[C@@H](N)Cc4c[nH]c5ccccc45)c3)cc12 [A-443654] | paradoxical hyper-phosphorylation of Akt at both Thr308 and Ser473 |  |  |  |  |  |  |
| CC(=O)NC(CCCCn1cc(C[C@@H](NC(=O)CCCCn2cc(C[C@@H](NC(=O)[C@@H](Cc3ccccc3)NC(=O)[C@@H](Cc3ccc(O)cc3)NC(=O)CNC(=O)[C@@H](CC(N)=O)NC(=O)[C@H](N)Cc3c[nH]cn3)C(=O)O)nn2)C(=O)N[C@H](Cc2c[nH]c3ccccc23)C(=O)N[C@H](CCCCN)C(=O)N[C@@H](C(=O)N[C@H](CCCCN)C(=O)N[C@H](CCCCNC(=O)CCc2cn(CCCC[C@H](NC(C)=O)C(=O)N[C@H](Cc3c[nH]cn3)C(=O)N[C@H](CC(=O)O)C(=O)NCC(=O)NCC(=O)N[C@H](Cc3ccccc3)C(N)=O)nn2)C(=O)N2CCCCC2)C(C)C)nn1)C(=O)NCCOCCOCCOCCC(=O)NCCNC(=O)CCCC[C@@H]1SC[C@@H]2NC(=O)N[C@@H]21 (stereo partly shown) [C-tL] |  | significant selectivity for the Akt2 epitope | lower signal than N-tL | best binder; also recorded: shows good binding | 6.90 | 5.40 and ~5.40 | inhibits Akt2 kinase activity |
